Experimental data from patent publication US20250034139A1, “AMINE COMPOUNDS HAVING ANTI-INFLAMMATORY, ANTIFUNGAL, ANTIPARASITIC, AND ANTICANCER ACTIVITY” (PHARMA CINQ, LLC, priority 2013, published 2025).
Converted amounts (≈) assume the structure as drawn.

Key:
THP-1 cells = test: Example D: LPS-triggered THP-1 cell death assay, acute/5-hour and chronic/48-hour; assay type: cell-based, Human; settings: 10 ng/ml LPS, 0.1 μM test compound, 48 hours
Method: Compounds of the invention were tested at 0.1 μM versus AC in the LPS-triggered THP-1 cell death assay. Both acute/5-hour and chronic/48-hour phases of cell death were assessed. Compounds were screened in batches with DMSO as the negative control and AC as the high activity control.

[1] = system: Candida albicans strain 3153; test: Example H: Candida albicans growth inhibition (OD 600 nm); assay type: cell-based; settings: for MIC: Candida albicans, 3153, 24 hrs at 30° C., YPD, XLfit, read-out: MIC (uM) (99% of inhibition of fungal growth); for IC50: Candida albicans, 3153, read-out: IC50 (uM) (50% inhibition of fungal growth), 24 hrs at 30° C., YPD, XLfit
Procedure, shortened: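 Growth inhibition computed as % versus DMSO control from OD600 after ~24 h at 30° C. Inoculum: washed overnight YPD culture of strain 3153 at 3.5×10^4 CFU/ml in YPD; final compound concentrations 0, 5, 10, 16, 22, 30, 40 μM, duplicate wells.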

Trichophyton rubrum = test: Example J: Trichophyton rubrum growth inhibition, scoring by eye; assay type: cell-based; settings: Trichophyton rubrum, 144 h; 6 days at 30° C., tested 6 to 40 μM; read-out: MIC, μM (maximum inhibition concentration, scoring by eye)
Method: Trichophyton grown on two agar plates were collected by scraping into 10 ml saline and filtered through 8 μm filters. […] This experiment included some active compounds from previous experiment and added several untested compounds. […] Following table listed the maximum inhibition concentration (MIC) based on scoring by eye. Scrape frozen Trichophyton culture from ATCC vial and suspended in 100 μl PDB, and then plate on a PDA plate. Incubate plate at 30 C for 4 days. The plate was covered almost full. […] Take OD of collected solution at 520 nm and 600 nm: […] Part-II: […] Add 6 μl each of diluted compound solutions per well in triplicates. […] Wrap the plates with […] incubate all plates at 30° C. for 6 days. • Take picture of the plates on KODAK imager with 17 captures of 1.5 sec/capture for total of 25.5 second exposure.

[2] = system: Cryptococcus neoformans (serotype D); test: Example K: Cryptococcus neoformans (serotype D) growth inhibition; assay type: cell-based; settings: Cryptococcus deneoformans, OD of 48 hour reading, 37° C., tested 4 to 60 μM, XLfit
Method: Cryptococcus neoformans (serotype D) were plated in 96 well plates with 144 μl/well of 8×10e5 CFU/ml in YM growth medium. Diluted compounds were then added to each well with concentration ranged from 4 to 60 μM as final concentration in duplicates. The plates were inoculated at 37° C. for total of 48 hours. Two readings of OD at 600 nm were measured after 30 and 48 hour treatments.
• 1. Pick a single colony of Cryptococcus from the YM agar plate using the inoculum loop and inoculate into a 125 ml flask containing 25 ml of YM growth medium. • 2. Incubate at 37° C. with shaking at 220 rpm for 24 hours with loosen lid to allow air in and facilitates growth. • 3. Examine an aliquot of the culture under a microscope for yeast cell morphology and lack of bacterial contamination. • 4. Dilute the overnight culture with YM medium at 1:100 dilution and count the number of cells as 1×10^6 cfu/ml. • 5. Make a final concentration of cells suspension at 8×10^5 cfu/ml in YM medium. • 6. Plate 144 μl/well of 8×10^5 cfu/ml cell suspension on 96-well plates. Part-II: Cryptococcus Growth Inhibition Testing with Compounds • 1. From 10 mM DMSO stock solutions, make serial dilutions of compounds to 0.1, 0.2, 0.3, 0.5, 1.0 and 1.5 mM solution. • 2. Add 6 ul each of diluted compound solutions per well in duplicates. The final concentrations were 0, 4, 8, 12, 20, 40 and 60 micromolar. • 3. Incubated all plates at 37° C. overnight (30 hours) with 150 rpm shaking. • 4. Read absorbance at OD600 for each plate. • 5. Leave plates in 37° C. incubator for another day and read absorbance at OD600 again at 48 hours to ensure the inhibitory effect of the compounds. • 6. Calculated the % inhibition and IC50 of each compound against untreated cells.

[3] = system: Hep3B hepatocellular carcinoma cell line; settings: for Tumor Weight (g) Mean ± SEM: Hep3B in liver of nude mice, day 35, oral daily, sorafenib 30 mg/kg/day alone, 20 mg/kg/day in combination, AC 180, AK and AB 360 μmol/kg/day; for Body Weight (g) Mean ± SEM Initial: in vivo; for Complete Regressions: number of mice with no viable tumor at necropsy, day 35, doses as Table 35
Source text: Hepatocellular carcinoma (HCC) is one of the most common and lethal cancers worldwide, generally developing as a consequence of chronic infection with hepatitis B or C viruses. […] The Hep3B hepatocellular carcinoma cell line is human in origin, contains genetic traces of hepatitis B virus, and can be injected into the livers of athymic immunocompromised mice as a model of primary HCC. […] The test compounds were all administered orally.
The test compounds of the invention were suspended in 1% hydroxypropylmethylcellulose (HPMC) using a sonicator equipped with a microtip to minimize particle size and maximize uniformity of the suspension. Sorafenib was dissolved in a 1:1 mixture of Cremophor EL and ethanol by heating to 60° C. for 1 minute and then sonicating for 10 minutes to fully suspend. Female nude mice (Hsd:athymic nude-Foxn1^nu) weighing approximately 25 g were anesthetized with ketamine/xylazine, laid on their backs, and a 1-cm transverse incision made through the skin and peritoneum of the left upper abdomen. The mediant lobe of the liver was exposed by applying gentle pressure on the abdomen. 1.5-2×10^6 Hep3B cells in a 20 μL volume of matrigel:EMEM serum free (1:1) were slowly implanted by subserosal injection into the liver using a 27-gauge needle on a Hamilton syringe. The liver was allowed to slip back into place, and the peritoneum was closed with sutures and wound clips.
Mice were divided into 8 groups of mice each following injection of cells; the vehicle/vehicle group comprised 12 mice and the other groups comprised 8 or 9. Mice began receiving oral test drug treatments 48 hr post cell injection.
The test compounds, sorafenib, and vehicles were administered by oral gavage. Sorafenib or its cremophor-containing vehicle were given in the morning and compounds of the invention or their HPMC vehicle was administered in the afternoon each day; all animals received two gavage treatments of drugs or appropriate vehicles daily.

[4] = system: 4T1 mouse mammary breast cancer cells; test: Example O: syngeneic 4T1 breast cancer growth in Balb/C mice; assay type: in vivo; settings: 4T1 in female Balb/C mice
Method: Cancer models in mice generally either involve syngeneic murine tumors in immunocompetent mice or xenografts of human tumors in immunocompromised mice. […] Mice received test compounds by oral gavage in 1% hydroxypropylmethylcellulose from day 2 until day 30. Tumor growth was assessed by caliper measurements twice per week and tumor weight after necropsy, and body weight was also monitored. Treatment groups were: • 1. […] HPMC) • 2. CI (120 μmol/kg/day) • 3. BA (120 μmol/kg/day) • 4. CP (120 μmol/kg/day) • 5. CQ (120 μmol/kg/day) • 6. AA (120 μmol/kg/day) • 7. AC (120 μmol/kg/day)

[5] = system: 4T1 murine breast cancer cells; test: Example S: in vitro anticancer screen, 4T1 cells, Wst1; assay type: cell-based, mouse; settings: Mus musculus, 4T1, 18 h, 18 hr, Wst1
Procedure, shortened: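 Read-out is Wst1 absorbance (450 nm, reference 630 nm) after roughly 2 hr dye incubation, giving percent cell survival versus vehicle. Before that, compounds at 1 μM or 5 μM were applied for 18 hr to 4T1 cells plated at 1×10^4 per well.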

[6] = system: PC3 human prostate cancer cells; test: Example S: in vitro anticancer screen, PC-3 cells, Wst1; assay type: cell-based; settings: Homo sapiens, PC-3; 1.5 μM, approximately 20 hours, Wst1; read-out: PC-3, percent of cancer cell survival relative to vehicle treated cells
Procedure, shortened: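 Values give percent survival relative to vehicle, read by Wst1 absorbance (450/630 nm) after 2 h dye incubation, in triplicate. Cells were seeded at 2×10^4/well and treated about 20 h with compound at 0.4, 0.5 or 2.5 μM, depending on compound.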

[7] = system: PC-3 prostate cancer cells; test: Example T: sensitisation of PC-3 cells to doxorubicin, oxaliplatin, paclitaxel or vincristine, Wst1; assay type: cell-based, human; settings: PC-3 cells, 72 hours

CCCCCCOc1ccc(CNc2ncnc3ccccc23)cc1 [AB, N-[4-(Hexyloxy)benzyl]quinazolin-4-amine]
Viable cell percent change, Chronic/48-hour, Mean (THP-1 cells): 56.56% | MIC [1]: 33 µM (≈ 11.1 µg/mL) | IC50 [1]: 11 µM | MIC (Trichophyton rubrum): 18 µM (≈ 6.04 µg/mL) | IC50 ([2]; read-out: IC50 (concentration for 50% of inhibition)): 1.15 µM | MIC ([2]; read-out: MIC (concentration for maximum-99% of inhibition)): 40.8 µM (≈ 13.7 µg/mL) | Tumor Weight (g) Mean ± SEM [3]: 0.88 ± 0.33 g | Body Weight (g) Mean ± SEM Initial [3]: 26.2 ± 0.7 g | Complete Regressions [3]: 2

CCCCCCOc1ccc(OCCNc2ccnc3ccccc23)cc1 [BA, N-{2-[4-(Hexyloxy)phenoxy]ethyl}quinolin-4-amine]
Viable cell percent change, Chronic/48-hour, Mean (THP-1 cells): 41.79% | MIC [1]: 96.7 µM (≈ 35.3 µg/mL) | IC50 [1]: 34.6 µM | Final Tumor Volume ([4]; 120 μmol/kg/day oral gavage, day 2 to day 30): 641 ± 159 mm^3 | Δ BW % ([4]; 120 μmol/kg/day oral, final vs initial body weight): −2.7% | Final Body Weight ([4]; 120 μmol/kg/day oral, final, in g (unit assumed)): 24.8 ± 2.0 | Initial Body Weight ([4]; 120 μmol/kg/day oral, initial (baseline)): 25.5 ± 1.5 g | viability at 1 µM ([5]; 1 μM, read-out: 4T1 1 μM, percent of cancer cell survival relative to vehicle treated cells): 71.7% | viability at 5 µM ([5]; 5 μM, read-out: 4T1 5 μM, percent of cancer cell survival relative to vehicle treated cells): 220% | viability at 1.5 µM [6]: 42.4% | viability at 1.5 µM ([7]; Homo sapiens, compound 1.5 μM alone, Wst1, vehicle = 100, read-out: No Chemo: percent cell survival): 42.4% | Doxorubicin 3.5 μM: percent cell survival ([7]; compound 1.5 μM + doxorubicin 3.5 μM, chemotherapy agent alone normalized to 100%): 167.3% | Oxaliplatin 100 μM: percent cell survival ([7]; compound 1.5 μM + oxaliplatin 100 μM, chemotherapy agent alone normalized to 100%): 146.7% | Paclitaxel 50 μM: percent cell survival ([7]; compound 1.5 μM + paclitaxel 50 μM, chemotherapy agent alone normalized to 100%): 145.7% | Vincristine 100 nM: percent cell survival ([7]; compound 1.5 μM + vincristine 100 nM, chemotherapy agent alone normalized to 100%): 148.7%

CNC(=O)c1cc(Oc2ccc(NC(=O)Nc3ccc(Cl)c(C(F)(F)F)c3)cc2)ccn1 [Sorafenib, sorafenib, reference compound]
Tumor Weight (g) Mean ± SEM [3]: 0.81 ± 0.20 g | Body Weight (g) Mean ± SEM Initial [3]: 25.9 ± 0.7 g | Complete Regressions [3]: 1
